Reference: ChEMBL document CHEMBL5465560, “Selectivity Literature for EUbOPEN Chemogenomic Library” (2024)

Legend:
[1] = target: RAC-gamma serine/threonine-protein kinase (Homo sapiens, UniProt Q9Y243); settings: at 10 µM
[2] = target: Protein-tyrosine kinase 6 (Homo sapiens, UniProt Q13882); test: Selectivity interaction (KinaseProfiler screening (Millipore)) EUB0000601a PTK6; settings: at 3 µM
[3] = system: Tyrosine-protein kinase ABL1 (Homo sapiens), P00519 [T315I]; test: (§1) Selectivity interaction (Kinase panel (Z-LYTE Assay)) EUB0001632a ABL1; settings: at 10 µM
[4] = system: Tyrosine-protein kinase ABL1 (Homo sapiens), P00519 [F317I]; test: as §1; settings: at 10 µM
[5] = system: Tyrosine-protein kinase ABL1 (Homo sapiens), P00519 [G250E]; test: as §1; settings: at 10 µM
[6] = target: Tyrosine-protein kinase ABL1 (Homo sapiens, UniProt P00519); test: as §1; settings: at 10 µM
[7] = system: Tyrosine-protein kinase ABL1 (Homo sapiens), P00519 [E255K]; test: as §1; settings: at 10 µM
[8] = system: Tyrosine-protein kinase ABL1 (Homo sapiens), P00519 [Y253F]; test: as §1; settings: at 10 µM
[9] = target: T1, Serine/threonine-protein kinase TAO2 (Homo sapiens) (UniProt Q9UL54); test: Selectivity interaction (KinomeScan (DiscoverX)) EUB0000695a TAOK2; settings: at 100 nM
T1 sequence (whole entry): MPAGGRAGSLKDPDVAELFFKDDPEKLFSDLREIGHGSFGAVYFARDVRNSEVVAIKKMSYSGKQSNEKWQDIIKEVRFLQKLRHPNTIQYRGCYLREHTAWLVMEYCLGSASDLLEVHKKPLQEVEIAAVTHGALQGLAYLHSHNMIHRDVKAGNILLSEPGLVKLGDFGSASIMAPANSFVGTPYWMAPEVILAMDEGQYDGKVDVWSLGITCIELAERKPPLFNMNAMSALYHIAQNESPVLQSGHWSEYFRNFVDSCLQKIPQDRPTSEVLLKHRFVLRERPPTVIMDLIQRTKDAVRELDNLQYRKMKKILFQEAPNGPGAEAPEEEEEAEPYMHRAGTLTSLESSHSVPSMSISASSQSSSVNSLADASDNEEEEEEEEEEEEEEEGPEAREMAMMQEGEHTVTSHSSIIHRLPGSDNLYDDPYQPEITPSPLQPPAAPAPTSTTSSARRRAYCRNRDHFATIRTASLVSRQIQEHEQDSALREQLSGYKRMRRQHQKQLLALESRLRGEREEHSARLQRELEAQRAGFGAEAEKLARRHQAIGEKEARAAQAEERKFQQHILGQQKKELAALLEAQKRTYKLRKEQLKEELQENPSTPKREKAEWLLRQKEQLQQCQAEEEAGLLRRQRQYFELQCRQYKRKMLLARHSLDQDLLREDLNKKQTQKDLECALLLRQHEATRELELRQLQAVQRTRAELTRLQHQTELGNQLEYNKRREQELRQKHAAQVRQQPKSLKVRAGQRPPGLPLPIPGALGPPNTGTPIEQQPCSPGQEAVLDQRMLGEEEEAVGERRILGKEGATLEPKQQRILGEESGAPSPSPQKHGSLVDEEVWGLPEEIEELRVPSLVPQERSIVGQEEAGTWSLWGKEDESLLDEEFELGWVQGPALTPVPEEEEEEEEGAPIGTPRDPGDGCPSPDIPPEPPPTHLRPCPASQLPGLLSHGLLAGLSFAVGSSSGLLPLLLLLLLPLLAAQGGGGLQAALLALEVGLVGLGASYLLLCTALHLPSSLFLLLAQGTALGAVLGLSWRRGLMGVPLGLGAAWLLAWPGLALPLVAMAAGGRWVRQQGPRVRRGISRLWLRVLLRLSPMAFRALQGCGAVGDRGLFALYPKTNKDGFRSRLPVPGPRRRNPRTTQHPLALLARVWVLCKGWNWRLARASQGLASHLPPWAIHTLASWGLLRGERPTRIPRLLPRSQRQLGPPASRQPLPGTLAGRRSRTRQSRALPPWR

[10] = system: eIF-2-alpha kinase GCN2 (Homo sapiens), Q9P2K8 [S808G]; test: Selectivity interaction (KinomeScan (DiscoverX)) EUB0000092b EIF2AK4; settings: at 10 µM
eIF-2-alpha kinase GCN2 (Homo sapiens), Q9P2K8 [S808G], sequence (Q9P2K8 whole entry S808G): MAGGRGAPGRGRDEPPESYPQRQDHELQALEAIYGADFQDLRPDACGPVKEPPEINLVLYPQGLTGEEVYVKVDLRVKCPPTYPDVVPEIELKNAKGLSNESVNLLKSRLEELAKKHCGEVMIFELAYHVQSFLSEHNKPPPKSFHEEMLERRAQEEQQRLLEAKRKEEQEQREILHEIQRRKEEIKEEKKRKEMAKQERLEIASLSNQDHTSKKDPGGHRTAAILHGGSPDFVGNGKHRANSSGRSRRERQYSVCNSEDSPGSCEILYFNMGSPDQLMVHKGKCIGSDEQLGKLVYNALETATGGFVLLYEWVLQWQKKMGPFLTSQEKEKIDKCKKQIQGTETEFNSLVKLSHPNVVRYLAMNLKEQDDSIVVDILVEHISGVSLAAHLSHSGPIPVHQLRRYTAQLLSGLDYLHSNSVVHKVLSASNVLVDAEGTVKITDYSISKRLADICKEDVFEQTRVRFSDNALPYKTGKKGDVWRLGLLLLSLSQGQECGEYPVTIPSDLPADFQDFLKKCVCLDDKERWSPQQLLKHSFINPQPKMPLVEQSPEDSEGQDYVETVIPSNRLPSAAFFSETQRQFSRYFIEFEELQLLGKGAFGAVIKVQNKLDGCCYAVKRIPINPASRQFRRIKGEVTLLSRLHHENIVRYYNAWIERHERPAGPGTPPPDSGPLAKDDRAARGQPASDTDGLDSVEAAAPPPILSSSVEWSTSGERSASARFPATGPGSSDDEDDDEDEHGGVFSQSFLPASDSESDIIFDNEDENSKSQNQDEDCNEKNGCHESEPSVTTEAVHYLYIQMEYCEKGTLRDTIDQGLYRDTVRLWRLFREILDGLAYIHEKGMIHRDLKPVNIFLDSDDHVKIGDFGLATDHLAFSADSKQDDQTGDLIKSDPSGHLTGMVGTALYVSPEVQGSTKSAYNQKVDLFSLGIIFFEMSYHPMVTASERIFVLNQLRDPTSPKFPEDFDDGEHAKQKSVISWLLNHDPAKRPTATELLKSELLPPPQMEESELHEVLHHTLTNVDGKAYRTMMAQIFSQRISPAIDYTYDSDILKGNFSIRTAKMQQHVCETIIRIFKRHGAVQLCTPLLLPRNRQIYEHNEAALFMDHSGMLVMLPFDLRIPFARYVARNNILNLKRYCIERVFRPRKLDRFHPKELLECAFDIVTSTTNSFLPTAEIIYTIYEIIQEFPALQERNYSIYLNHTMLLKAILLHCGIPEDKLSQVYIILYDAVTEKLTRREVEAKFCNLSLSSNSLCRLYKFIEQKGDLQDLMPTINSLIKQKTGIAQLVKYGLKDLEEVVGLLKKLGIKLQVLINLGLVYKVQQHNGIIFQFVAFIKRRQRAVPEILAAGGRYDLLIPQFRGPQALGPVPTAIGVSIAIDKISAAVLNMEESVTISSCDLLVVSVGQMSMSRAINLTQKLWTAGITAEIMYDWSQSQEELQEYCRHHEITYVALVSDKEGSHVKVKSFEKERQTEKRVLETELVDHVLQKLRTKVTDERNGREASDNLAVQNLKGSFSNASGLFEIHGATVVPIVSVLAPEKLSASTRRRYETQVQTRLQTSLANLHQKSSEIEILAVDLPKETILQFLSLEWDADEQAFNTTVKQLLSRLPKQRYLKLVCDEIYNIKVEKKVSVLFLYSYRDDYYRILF

[11] = target: T2, Myotonin-protein kinase (Homo sapiens) (UniProt Q09013); test: Selectivity interaction (KinomeScan (DiscoverX)) EUB0000092b DMPK; settings: at 10 µM
T2 sequence (whole entry): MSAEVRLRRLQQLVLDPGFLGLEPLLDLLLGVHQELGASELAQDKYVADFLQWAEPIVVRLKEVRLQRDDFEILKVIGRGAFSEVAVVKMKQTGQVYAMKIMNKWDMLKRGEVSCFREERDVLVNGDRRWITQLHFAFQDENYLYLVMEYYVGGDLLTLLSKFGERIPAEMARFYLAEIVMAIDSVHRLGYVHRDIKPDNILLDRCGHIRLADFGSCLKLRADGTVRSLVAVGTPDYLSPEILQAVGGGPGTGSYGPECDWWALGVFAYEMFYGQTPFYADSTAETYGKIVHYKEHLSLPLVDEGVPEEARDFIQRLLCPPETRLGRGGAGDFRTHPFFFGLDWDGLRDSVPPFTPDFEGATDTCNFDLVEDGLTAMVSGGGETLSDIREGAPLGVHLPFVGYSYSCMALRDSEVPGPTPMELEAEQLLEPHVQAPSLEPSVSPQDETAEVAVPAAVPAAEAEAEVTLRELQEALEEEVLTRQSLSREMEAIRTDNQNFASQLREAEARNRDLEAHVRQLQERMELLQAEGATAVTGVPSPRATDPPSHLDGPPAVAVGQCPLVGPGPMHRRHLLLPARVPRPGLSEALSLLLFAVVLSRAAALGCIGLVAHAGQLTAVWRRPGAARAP

[12] = target: Casein kinase I isoform delta (Homo sapiens, UniProt P48730); test: Selectivity interaction (KinomeScan (DiscoverX)) EUB0001619a CSNK1D; settings: at 1 µM
Casein kinase I isoform delta, sequence (P48730 whole entry, looked up, canonical isoform): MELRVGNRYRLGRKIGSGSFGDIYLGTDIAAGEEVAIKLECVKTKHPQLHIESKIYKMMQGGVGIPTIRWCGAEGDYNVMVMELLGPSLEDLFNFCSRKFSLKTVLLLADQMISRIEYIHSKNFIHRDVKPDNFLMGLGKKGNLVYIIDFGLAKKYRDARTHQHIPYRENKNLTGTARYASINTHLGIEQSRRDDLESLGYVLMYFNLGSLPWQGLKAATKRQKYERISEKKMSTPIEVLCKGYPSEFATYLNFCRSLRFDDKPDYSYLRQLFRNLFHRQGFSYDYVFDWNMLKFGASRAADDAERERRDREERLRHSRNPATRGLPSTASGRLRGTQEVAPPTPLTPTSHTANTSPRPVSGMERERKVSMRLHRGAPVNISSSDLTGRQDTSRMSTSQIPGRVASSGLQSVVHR

[13] = target: Phosphatidylinositol 4-phosphate 5-kinase type-1 gamma (Homo sapiens) (UniProt O60331); test: Selectivity interaction (KinomeScan (DiscoverX)) EUB0000607a PIP5K1C; settings: at 10 µM
Phosphatidylinositol 4-phosphate 5-kinase type-1 gamma (Homo sapiens), sequence (O60331 whole entry): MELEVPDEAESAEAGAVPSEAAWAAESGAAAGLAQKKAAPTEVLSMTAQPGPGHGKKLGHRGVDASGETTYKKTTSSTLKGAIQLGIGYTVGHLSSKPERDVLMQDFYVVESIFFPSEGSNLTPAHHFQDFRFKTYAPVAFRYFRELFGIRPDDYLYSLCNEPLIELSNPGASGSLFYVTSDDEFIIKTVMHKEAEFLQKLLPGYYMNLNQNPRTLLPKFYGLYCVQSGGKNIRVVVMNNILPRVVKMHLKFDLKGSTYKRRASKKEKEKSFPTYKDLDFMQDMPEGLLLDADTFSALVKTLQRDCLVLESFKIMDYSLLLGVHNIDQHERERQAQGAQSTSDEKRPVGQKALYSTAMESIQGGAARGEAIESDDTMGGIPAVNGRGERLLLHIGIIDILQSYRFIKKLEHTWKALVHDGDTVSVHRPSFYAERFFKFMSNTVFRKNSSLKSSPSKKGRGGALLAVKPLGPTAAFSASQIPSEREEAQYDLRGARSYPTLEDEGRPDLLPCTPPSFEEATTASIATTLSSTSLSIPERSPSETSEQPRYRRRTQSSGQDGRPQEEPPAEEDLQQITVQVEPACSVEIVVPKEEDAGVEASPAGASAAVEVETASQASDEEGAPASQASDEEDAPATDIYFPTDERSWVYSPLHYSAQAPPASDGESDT

RAC-gamma serine/threonine-protein kinase, sequence (Q9Y243 whole entry): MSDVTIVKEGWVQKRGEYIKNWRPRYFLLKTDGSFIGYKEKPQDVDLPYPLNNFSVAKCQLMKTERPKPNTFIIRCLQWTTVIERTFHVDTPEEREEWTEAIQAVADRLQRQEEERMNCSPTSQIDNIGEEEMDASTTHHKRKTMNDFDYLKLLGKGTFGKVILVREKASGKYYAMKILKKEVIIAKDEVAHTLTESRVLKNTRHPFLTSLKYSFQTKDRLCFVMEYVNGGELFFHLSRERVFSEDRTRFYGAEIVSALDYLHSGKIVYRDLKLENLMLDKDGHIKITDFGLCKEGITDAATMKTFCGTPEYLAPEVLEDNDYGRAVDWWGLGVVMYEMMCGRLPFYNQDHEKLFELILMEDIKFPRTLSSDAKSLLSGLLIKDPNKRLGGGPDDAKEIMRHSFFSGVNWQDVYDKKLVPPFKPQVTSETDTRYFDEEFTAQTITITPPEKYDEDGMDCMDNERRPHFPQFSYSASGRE
Protein-tyrosine kinase 6, sequence (Q13882 whole entry, looked up): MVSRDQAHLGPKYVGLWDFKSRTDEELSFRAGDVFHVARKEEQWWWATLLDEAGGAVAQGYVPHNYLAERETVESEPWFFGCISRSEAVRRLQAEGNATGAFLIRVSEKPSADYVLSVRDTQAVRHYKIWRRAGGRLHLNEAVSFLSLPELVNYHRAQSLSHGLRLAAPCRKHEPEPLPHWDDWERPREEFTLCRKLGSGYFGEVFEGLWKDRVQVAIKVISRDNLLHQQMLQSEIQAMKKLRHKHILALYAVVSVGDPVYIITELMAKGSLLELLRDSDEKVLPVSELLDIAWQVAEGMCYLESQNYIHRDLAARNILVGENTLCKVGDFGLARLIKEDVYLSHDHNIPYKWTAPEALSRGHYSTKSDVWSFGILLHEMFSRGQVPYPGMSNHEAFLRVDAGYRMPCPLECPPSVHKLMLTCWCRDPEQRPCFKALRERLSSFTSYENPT

## Cc1cc([C@@H](C)Nc2ccccc2C(=O)O)c2nc(N3CCOCC3)cc(=O)n2c1 [AZD-6482]
[1]
  % of control: 100%

## CCc1cc(Nc2nccc(-c3c(-c4ccc(OC)c(C(=O)Nc5c(F)cccc5F)c4)nc4ccccn34)n2)c(OC)cc1N1CCC(N2CCN(S(C)(=O)=O)CC2)CC1
[2]
  % of inhibition: 65%

## Cn1cc(-n2cnc3c(NCc4nc5cc(Cl)c(Cl)cc5[nH]4)nc(N4CCOCC4)nc32)cn1
[3]
  % of control: -2.31%
[4]
  % of control: 1.78%
[5]
  % of control: 2.49%
[6]
  % of control: -6.52%
[7]
  % of control: -3.74%
[8]
  % of control: 2.36%

## Cc1cc(F)c(C(=O)Nc2cccc(-c3nncn3C(C)C)n2)cc1-n1cnc(C2CC2)c1
[9]
  % of control: 100%

## CCC(=O)N1CCN(c2ccc(-n3c(=O)ccc4cnc5ccc(-c6cnc7ccccc7c6)cc5c43)cc2C(F)(F)F)CC1
[10]
  % of control: 99%
[11]
  % of control: 77%

## N#Cc1cccc(-c2c[nH]c3ncnc(N4CCOCC4)c23)c1
[12]
  % of control: 100%

## CNC(=O)Nc1ccc(-c2nc(N3CC4CCC(C3)O4)c3cnn(C4CCC5(CC4)OCCO5)c3n2)cc1
[13]
  % of control: 100%
